Several values for one entry are separate records, joined by “and”; a condition that tells them apart may be missing. Equal entries are not always repeated.
Tests used:
Format in all cases: in vitro ADME
CYP2B6 = biological target: T1, CYP2B6 (Homo sapiens, UniProt P20813); test: CYP2B6 inhibition in HLM (bupropion hydroxylase)
T1 construct: co-incubation ticagrelor-O-Glu with selective P450 probe substrates in HLM; tissue XenoTech LLC; host or cells: pooled human liver microsomes
T1 sequence (P20813 1-491): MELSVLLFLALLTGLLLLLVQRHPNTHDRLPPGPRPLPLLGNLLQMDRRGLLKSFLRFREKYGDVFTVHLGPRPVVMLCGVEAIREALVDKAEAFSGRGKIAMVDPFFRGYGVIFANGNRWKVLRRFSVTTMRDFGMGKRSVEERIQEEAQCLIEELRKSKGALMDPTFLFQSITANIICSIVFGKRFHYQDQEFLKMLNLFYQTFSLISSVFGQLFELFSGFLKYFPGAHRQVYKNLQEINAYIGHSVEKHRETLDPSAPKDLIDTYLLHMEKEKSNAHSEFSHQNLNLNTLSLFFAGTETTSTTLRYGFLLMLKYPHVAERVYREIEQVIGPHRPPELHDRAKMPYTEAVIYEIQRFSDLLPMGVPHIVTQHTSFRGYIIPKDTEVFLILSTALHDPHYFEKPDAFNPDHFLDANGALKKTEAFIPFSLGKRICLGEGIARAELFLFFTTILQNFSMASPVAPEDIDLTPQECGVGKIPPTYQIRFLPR
Procedure: The potential inhibitory effects of ticagrelor-O-Glu on the activities of major CYPs, i.e., CYP2B6, CYP2C8, CYP2C9, CYP2C19, CYP2D6, and CYP3A4, were evaluated by co-incubation ticagrelor-O-Glu with selective P450 probe substrates in HLM. Each incubation mixture containing 0.2 mg/ml HLM, ticagrelor-O-Glu and respective substrate (the final substrate concentrations are close to or less than the Km values: 150 μM bupropion, 1.26 μM amodiaquine, 10 μM diclofenac, 20 μM mephenytoin, 20 μM dextromethorphan and 80 μM testosterone (in house data)) in potassium phosphate buffer (100 mM, pH 7.4) was pre-incubated at 37°C for 5 min. Then, NADPH (10 mM) was added to initiate the reaction. The final volume of the incubation mixture was 100 μl. After incubation at 37°C for specific time points, the reaction was terminated by the addition of 200 μl of ice-cold methanol solution with internal standards (diazepam and furafylline). Preliminary screening experiments with selected concentrations of ticagrelor-O-Glu (0, 1, 10, or 100 μM of the final concentration) were carried out to determine the inhibition potency. For those that produced approximately 50% inhibition of CYPs enzyme activities at a ticagrelor-O-Glu concentration between 1 and 100 μM, IC50 was further determined with various concentrations of ticagrelor-O-Glu (0, 1, 5, 10, 20, 50, and 100 μM). All the experiments were performed in triplicates. The supernatant was obtained after centrifugation at 14,000 rpm for 10 min and injected into LC-MS/MS for the analysis of the respective metabolites. The formation of respective metabolites was determined to reflect P450 isoform activities. The metabolites quantified for CYP2B6, CYP2C8, CYP2C9, CYP2C19, CYP2D6, and CYP3A4 were hydroxy bupropion, N-Desethyl amodiaquine, 4′-hydroxylation diclofenac, S-4-hydroxy mephenytoin, dextrorphan and 6β-hydroxy testosterone, respectively.
The percent inhibition relative to the control was calculated to indicate the UGTs or CYPs inhibition. […]

[1] = test system: human liver microsomes (HLM); test: Ticagrelor glucuronidation kinetics in pooled HLM
Procedure: (§1) Ticagrelor glucuronidation was investigated in an in vitro incubation system by using HLM, HIM, and recombinant human UGTs. The incubation system consisted of enzyme sources (HLM, HIM, or human recombinant UGTs), various concentrations of ticagrelor (dissolved in 50% methanol, 1% v/v, 1, 2, 5, 10, 20, 50, 100, 200, 500 μM of final concentration), alamethicin (50 μg/mg protein), 5 mM MgCl2, 100 mM tris-HCL buffer (pH 7.4), and 5 mM UDPGA in a total volume of 100 μl. Alamethicin is a pore-forming polypeptide used to activate UGTs in HLM and HIM ([Fisher et al., 2000]). Preliminary studies were conducted to determine the optimal protein concentrations and incubation times. Linear conditions of ticagrelor-O-Glu formation from ticagrelor, i.e., HLM, 0.2 mg of protein/ml and 60 min, HIM, 0.2 mg of protein/ml and 60 min, and recombinant human UGTs, 0.2 mg of protein/ml and 60 min were selected. The incubation mixture without UDPGA was placed on ice for 15 min to activate UGT by alamethicin. After pre-incubation for 5 min at 37°C, the reactions were started by the addition of UDPGA. After another 60 min of incubation at 37°C, the reaction was terminated by adding 100 μl of acetonitrile containing internal standard (diazepam). The mixture vortexed for 2 min and then centrifuged at 14,000 rpm for 10 min at 4°C. The resulting supernatant was injected into a liquid chromatography tandem mass spectrometry (LC-MS/MS, Applied Biosystems/MDS Sciex, Foster City, CA) system for the detection of ticagrelor-O-Glu.
Kinetic analyses were performed using the mean values of triplicate determinations with either pooled HLM, HIM, or recombinant human UGTs. All data were analyzed by nonlinear regression analysis using the GraphPad Prism 6 (GraphPad Software Inc., CA, United States). Michaelis-Menten kinetics (Eq. 1) or substrate inhibition kinetics (Eq. 2) ([Houston and Kenworthy, 2000]) were tested to determine the optimal model for describing the data. […] Intrinsic clearance (CLint) was calculated by dividing Vmax by Km.

UGT1A7 = biological target: T2, UGT1A7 (Homo sapiens, UniProt Q9HAW7); test: Ticagrelor glucuronidation by recombinant human UGT1A7; conditions: recombinant human UGT1A7, pH 7.4
T2 construct: purchased BD Gentest; host or cells: baculovirus-infected insect cells
Procedure: as §1, with “After pre-incubation for 5 min at 37°C, the reactions were started by the addition of UDPGA. After another 60 min of incubation at 37°C, the reaction was terminated by adding 100 μl of acetonitrile containing internal standard (diazepam). The mixture vortexed for 2 min and then centrifuged at 14,000 rpm for 10 min at 4°C. The resulting supernatant was injected into a liquid chromatography tandem mass spectrometry (LC-MS/MS, Applied Biosystems/MDS Sciex, Foster City, CA) system for the detection of ticagrelor-O-Glu.” left out
Kinetic analyses were performed using the mean values of triplicate determinations with either pooled HLM, HIM, or recombinant human UGTs. All data were analyzed by nonlinear regression analysis using the GraphPad Prism 6 (GraphPad Software Inc., CA, United States). […] Intrinsic clearance (CLint) was calculated by dividing Vmax by Km.

T2 sequence (Q9HAW7 26-530): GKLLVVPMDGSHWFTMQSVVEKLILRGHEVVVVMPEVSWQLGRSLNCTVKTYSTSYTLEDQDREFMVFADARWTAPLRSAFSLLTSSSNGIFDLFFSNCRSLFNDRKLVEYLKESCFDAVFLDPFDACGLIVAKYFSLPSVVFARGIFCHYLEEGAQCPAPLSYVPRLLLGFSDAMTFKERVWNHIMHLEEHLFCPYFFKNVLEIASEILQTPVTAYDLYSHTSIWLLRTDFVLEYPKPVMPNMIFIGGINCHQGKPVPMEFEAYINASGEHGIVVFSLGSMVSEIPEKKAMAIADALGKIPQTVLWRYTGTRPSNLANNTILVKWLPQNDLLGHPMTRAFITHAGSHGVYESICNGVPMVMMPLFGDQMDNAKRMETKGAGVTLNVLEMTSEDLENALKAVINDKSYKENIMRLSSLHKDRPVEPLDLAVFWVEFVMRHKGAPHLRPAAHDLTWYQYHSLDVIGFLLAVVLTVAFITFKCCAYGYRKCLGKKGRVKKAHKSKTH

Row | IC50 (CYP2B6; CYP2B6, bupropion hydroxylase, HLM 0.2 mg/ml) [µM] | inhibition at 10 μM (CYP2B6; human, human liver microsomes, pH 7.4, probe bupropion (150 μM), hydroxy bupropion formation, HLM, 10 μM ticagrelor-O-Glu) [%] | inhibition at 100 µM (CYP2B6; human, human liver microsomes, pH 7.4, probe bupropion (150 μM), hydroxy bupropion formation, HLM, 100 μM ticagrelor-O-Glu) [%] | Km ([1]; pooled HLM 0.2 mg protein/ml, 60 min, substrate inhibition kinetics) [µM] | microsomal CLint (UGT1A7) [µL/min/mg] | SMILES | Ksi ([1]; pooled HLM) | Vmax ([1]; pooled HLM) [pmol·min^−1·mg protein^−1]
1 | 45 | 19.1 | 77.9 |  |  | CCCSc1nc(N[C@@H]2C[C@H]2c2ccc(F)c(F)c2)c2nnn([C@@H]3C[C@H](OCCO[C@@H]4O[C@H](C(=O)O)[C@@H](O)[C@H](O)[C@H]4O)[C@@H](O)[C@H]3O)c2n1 [Ticagrelor-O-Glu, ticagrelor-O-glucuronide] |  | 
2 |  |  |  | 5.65 | 0.07 | CCCSc1nc(N[C@@H]2C[C@H]2c2ccc(F)c(F)c2)c2nnn([C@@H]3C[C@H](OCCO)[C@@H](O)[C@H]3O)c2n1 [Ticagrelor] | 1,343 μM and 1,343.0 μM | 8.03
